According to patent publication US20260115177A1, “MEDICINAL PRODUCTS AND METHODS FOR THE ALLEVIATION OF CANCER IMMUNOTHERA-PY-ASSOCIATED CYTOKINE RELEASE SYNDROME” (POOLBEG PHARMA (UK) LIMITED, priority 2023, published 2026):

Experiments:
[1] = tested on: PBMC humanized NSG-MHC I/II double knock-out mice with Raji-Luc CD19-expressing cancer cells; experiment: In vivo (murine) model using anti-CD28 antibody for CRS induction; design: species or system mouse
Description: An outline of the timeline of the model is provided in FIG. 19; it commences on Study Day 0 and ends on Study Day 10. […] It thus models the effect of administering a p38 MAP kinase inhibitor prior to the onset of CRS in accordance with the present disclosure.
Anti-CD28 antibody acts as a super-agonist of T cells (i.e., strongly activates T cells) resulting in T cell-mediated tumour cell death, with a rapid consequent release of cytokines and knock-on effects for monocytes and endothelial cells; thus modelling CRS induced by various different types of T cell-involving cancer immunotherapy.
Thus, on Study Day 0, 30 female 6- to 8-week-old NSG-(KbDb)null (IA)null mice are irradiated at 100 cGy. Approximately 4 hours later, on the same day (Study Day 0) all mice are humanised by IV dosing with 15×10^6 human peripheral blood mononuclear cells (PBMCs).
On Study Day 5, all mice are intravenously dosed with 0.25×10^6 Raji-Luc CD19-expressing cancer cells (a Raji wild-type cell line with stable and high expression of luciferase, enabling detection of cancer burden by […]). Approximately 4 hours later, mice are imaged using in vivo […] imaging (IVIS). For IVIS, mice are IP injected with 150 mg/kg D-Luciferin. 10 minutes after the D-Luciferin injection, mice are imaged dorsal and ventral; auto exposure) using an IVIS Lumina system (obtainable from PerkinElmer of Chalfont Road. Seer Green, Beaconsfield, HP9 2FX, UK). Regions of interest (ROI) are drawn for each mouse to capture its whole body, and total flux (p/s) is reported. Tumour burden continues to be monitored by IVIS twice per week, starting on Study Day 5, until the end of the study. Daily clinical observation continues throughout the study, including observation of CRS, CRS being scored as follows:
On Study Day 6, 25 of the 30 mice are treated with 1 mg/kg anti-CD28.
As a control, a group consisting of the 5 remaining mice (“Group 1”) are not administered anti-CD28. Beginning on Study Day 4 and ending on Study Day 10, Group 1 receive treatment with 0.5% (w:v) HPMC, 0.1% (w:v) Tween 80 in sWFI (vehicle/control), administered BID at 5 mL/kg.
The 25 mice administered anti-CD28 are divided into groups of 5 mice per group. Administration of a control drug (Humira), vehicle or UR-13870 is carried out in accordance with the following protocol: • Group 2—Vehicle only, BID, beginning on Study Day 4 and ending on Study Day 10; • Group 3—UR-13870 (formulated in vehicle), 2 mg/kg, twice daily (BID) beginning on Study Day 4 and ending on Study Day 10; • Group 4—UR-13870 (formulated in vehicle), 10 mg/kg, twice daily (BID) beginning on Study Day 4 and ending on Study Day 10; • Group 5—UR-13870 (formulated in vehicle), 25 mg/kg, twice daily (BID) beginning on Study Day 4 and ending on Study Day 10; and • Group 6—Humira (formulated in PBS) (further, positive control) 5 mg/kg, once daily beginning on Study Day 4 and ending on Study Day 10.
Dosing of UR-13870 or vehicle is by subcutaneous injection. Subcutaneous injection sites are rotated for each dose (rotating among right flank, left flank, right inguinal region, left inguinal region). For UR-13870 and vehicle, AM and PM (BID) doses are scheduled at least 6 hours apart. Dosing of Humira is by intraperitoneal injection.
On Study Days 6, 9 and 10, blood is collected from each of the 30 mice in Groups 1-6 (a 50-200 μl blood sample from each mouse, each time), for flow cytometry analysis, including analysis of CD19+ cancer cells per ml; and cytokine measurement. It should be noted that, where relevant to BID dosed groups, blood collection is carried out between AM and PM dosing.
All mice in Groups 1-6 are euthanized by CO2 asphyxiation on Study Day 10. […]

CAR T cells = experiment: T cell exhaustion markers TIM3 and LAG3 on CAR T cells in co-culture (flow cytometry); type: cell-based, human; settings: CAR T:tumour cell co-culture, concentrations of Table 2
Description: UR-13870, Ralimetinib or Acumapimod are each added to a culture of CD19+ cancer cells (using a micropipette to transfer the correct volume to achieve the desired final concentration in Table 2).
CAR T cells are then added to the same culture 5-10 minutes later. In brief, CAR T cell concentrations per ml are determined and used to aliquot the desired number of CAR T cells into the culture to achieve the described 1:1 CAR T to cancer cell ratio.
The co-culture containing CAR T cells and tumour cells is swirled gently to ensure homogenous dispersion of cells throughout the vessel. The resultant co-culture is incubated for 24 to 96 hours in a closed incubator at 37° C. with 5% CO2 and a suitably humid atmosphere.
Both T cell surface markers T cell immunoglobulin and mucin domain-containing protein 3 (TIM3/CD366) and Lymphocyte Activation Gene 3 (LAG3/CD223) are associated with T cell exhaustion and disease progression during immunotherapy treatment. Advantageously, all of UR-13870, Ralimetinib and Acumapimod reduce both the number of TIM3+ CAR T cells, and the number of LAG3+ CAR T cells. […] For LAG3+, the results for Ralimetinib at a 5 μM concentration appear to have been affected by experimental failure, and these may be disregarded accordingly.

## OCCCn1cc2c(-c3ccc(F)cc3)c(-c3ccncc3)c(-c3ccc(F)cc3)nc2n1 [UR-13870, 6-bis(4-fluorophenyl)-5-(4-pyridinyl)-2Hpyrazolo[3,4-b]pyridine-2-propanol]
[1]; Day 5 to Day 7
  tumour cell proliferation (tumour burden by IVIS): does not increase
[1]; Day 5 to Day 7, tumour burden by IVIS
  T cell mediated cancer cell death: maintains
[1]; anti-CD28 1 mg/kg, UR-13870 2, 10, 25 mg/kg BID s.c., Humira 5 mg/kg once daily i.p., Study Day 4 to 10
  CRS scores: significantly reduces
[1]; blood serum, Luminex
  IFNγ: reduced
  IL-2: reduced
  IL-4: reduced
  IL-6: reduced
  IL-8: reduced
  IL-10: reduced
  MIP-1α: reduced
  TNF a: reduced
[1]; blood, day 9
  hCD45+ CD3+ hCD4+ cells/μl: Neither UR-13870 or Humira had a significant impact
[1]; blood, days 9 and 10
  hCD45+ cells/μl: Neither UR-13870 or Humira had a significant impact
  hCD45+ hCD3+ cells/μl: Neither UR-13870 or Humira had a significant impact
[1]; blood, flow cytometry
  proliferation of tumour cells (counts of CD19+ cancer cells per ml): neither UR-13870 or Humira increased proliferation of tumour cells
[1]; days 9 and 10 (especially day 10)
  mean CD19+ cancer cells per ml compared to CD28 stimulation only: downward trend
CAR T cells
  number of TIM3+ CAR T cells: reduce
CAR T cells; Ralimetinib 5 μM results to be disregarded
  number of LAG3+ CAR T cells: reduce
